Several values for one entry are separate records, joined by “and”; a condition that tells them apart may be missing. Equal values may be shown once. Inconclusive results and toxic doses are left out. No stated cut-off is given here; in the data, active means T/C of 150% or more; inactive means T/C below 125%.
Tested on: L1210 leukemia ip in BDF1 mice, survival T/C
Test: NCI In Vivo Anticancer Drug Screen. Data for tumor model L1210 Leukemia (intraperitoneal) in B6D2F1 (BDF1) mice
Settings: endpoint: mean survival time, higher = longer survival
Outline: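 Ratio derived from survival: compound-dosed mice over vehicle-dosed mice, all bearing a transplantable tumor.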

[1] = dose: 100.0 mg/kg/injection, schedule: Q01DX009 (ip), vehicle: saline with Tween-80
[2] = dose: 100.0 mg/kg/injection, schedule: Q01DX001 (ip), vehicle: carboxymethylcellulose (CMC)
[3] = dose: 200.0 mg/kg/injection, schedule: Q01DX001 (ip), vehicle: carboxymethylcellulose (CMC)
[4] = dose: 400.0 mg/kg/injection, schedule: Q01DX001 (ip), vehicle: carboxymethylcellulose (CMC)
[5] = dose: 100.0 mg/kg/injection, schedule: Q04DX003 (ip), vehicle: saline
[6] = dose: 200.0 mg/kg/injection, schedule: Q04DX003 (ip), vehicle: saline
[7] = dose: 400.0 mg/kg/injection, schedule: Q04DX003 (ip), vehicle: saline
[8] = dose: 100.0 mg/kg/injection, schedule: Q04DX003 (ip), vehicle: Klucel (hydroxypropylcellulose) (HPC)
[9] = dose: 200.0 mg/kg/injection, schedule: Q04DX003 (ip), vehicle: Klucel (hydroxypropylcellulose) (HPC)
[10] = dose: 400.0 mg/kg/injection, schedule: Q04DX003 (ip), vehicle: Klucel (hydroxypropylcellulose) (HPC)
[11] = dose: 100.0 mg/kg/injection, schedule: Q04DX002 (ip), vehicle: Klucel (hydroxypropylcellulose) (HPC)
[12] = dose: 50.0 mg/kg/injection, schedule: Q01DX001 (ip), vehicle: carboxymethylcellulose (CMC)
[13] = dose: 100.0 mg/kg/injection, schedule: Q01DX009 (ip), vehicle: Klucel (hydroxypropylcellulose) (HPC)
[14] = dose: 200.0 mg/kg/injection, schedule: Q01DX009 (ip), vehicle: Klucel (hydroxypropylcellulose) (HPC)
[15] = dose: 400.0 mg/kg/injection, schedule: Q01DX009 (ip), vehicle: Klucel (hydroxypropylcellulose) (HPC)
[16] = dose: 100.0 mg/kg/injection, schedule: Q01DX001 (ip), vehicle: saline
[17] = dose: 200.0 mg/kg/injection, schedule: Q01DX001 (ip), vehicle: saline
[18] = dose: 400.0 mg/kg/injection, schedule: Q01DX001 (ip), vehicle: saline

Measured: T/C

CC(=O)Nc1ccc(N=CN(C)C)cc1
inactive: [1] 94 % of control | dose: 200.0 mg/kg/injection, schedule: Q01DX009 (ip), vehicle: saline with Tween-80 101 % of control

COC(=N)Cc1ccccc1
inactive: dose: 75.0 mg/kg/injection, schedule: Q01DX009 (ip), vehicle: saline with Tween-80 100 % of control | dose: 150.0 mg/kg/injection, schedule: Q01DX009 (ip), vehicle: saline with Tween-80 101 % of control | dose: 300.0 mg/kg/injection, schedule: Q01DX009 (ip), vehicle: saline with Tween-80 101 % of control

COc1cccc(CN(CCC(=O)O)Cc2cccc(OC)c2)c1
inactive: dose: 100.0 mg/kg/injection, schedule: Q01DX009 (ip), vehicle: other 100 % of control | dose: 100.0 mg/kg/injection, schedule: Q04DX003 (ip), vehicle: other 88 % of control | dose: 200.0 mg/kg/injection, schedule: Q01DX009 (ip), vehicle: other 102 % of control | dose: 200.0 mg/kg/injection, schedule: Q04DX003 (ip), vehicle: other 88 % of control | dose: 400.0 mg/kg/injection, schedule: Q01DX009 (ip), vehicle: other 102 % of control | dose: 400.0 mg/kg/injection, schedule: Q04DX003 (ip), vehicle: other 93 % of control

Cc1cccc(N=Cc2ccc3c(c2)OCO3)c1
inactive: dose: 50.0 mg/kg/injection, schedule: Q01DX009 (ip), vehicle: saline 94 % of control | dose: 100.0 mg/kg/injection, schedule: Q01DX009 (ip), vehicle: saline 94 % of control | dose: 200.0 mg/kg/injection, schedule: Q01DX009 (ip), vehicle: saline 94 % of control

NC(=O)Nc1ccc2c(c1)Cc1cc([N+](=O)[O-])ccc1-2
inactive: [2] 100 % of control | [3] 105 % of control | [4] 91 % of control

CCC(C)(C)c1cc(Sc2cc(C(C)(C)CC)cc(C(C)(C)CC)c2O)c(O)c(C(C)(C)CC)c1
inactive: [5] 109 % of control | [6] 100 % of control | [7] 88 % of control

COc1ccc(-n2c(=O)c(N=Nc3ccccc3C)c(O)n(-c3ccccc3Cl)c2=S)cc1
inactive: dose: 100.0 mg/kg/injection, schedule: Q01DX001 (ip), vehicle: Klucel (hydroxypropylcellulose) (HPC) 107 % of control | dose: 200.0 mg/kg/injection, schedule: Q01DX001 (ip), vehicle: Klucel (hydroxypropylcellulose) (HPC) 94 % of control | dose: 400.0 mg/kg/injection, schedule: Q01DX001 (ip), vehicle: Klucel (hydroxypropylcellulose) (HPC) 102 % of control

CC1CC2C3CC(F)C4=CC(=O)C=CC4(C)C3(F)C(O)CC2(C)C1(O)C(=O)COC(=O)C(C)(C)C (stereo not drawn)
inactive: dose: 100.0 mg/kg/injection, schedule: Q01DX001 (ip), vehicle: steriod suspending solution 106 % of control | dose: 200.0 mg/kg/injection, schedule: Q01DX001 (ip), vehicle: steriod suspending solution 95 % of control | dose: 400.0 mg/kg/injection, schedule: Q01DX001 (ip), vehicle: steriod suspending solution 95 % of control

CC(=O)Nc1ccc(O)cc1
inactive: [2] 93 % of control | dose: 100.0 mg/kg/injection, schedule: Q04DX002 (ip), vehicle: saline 116 % of control | [8] 97 % of control | [3] 96 % of control | dose: 200.0 mg/kg/injection, schedule: Q04DX002 (ip), vehicle: saline 100 % of control | [9] 104 % of control | [4] 107 % of control | dose: 400.0 mg/kg/injection, schedule: Q04DX002 (ip), vehicle: saline 88 % of control | [10] 111 % of control

O=C(CCC(=O)Nc1ccc(Cl)c(Cl)c1)Nc1ccc(Cl)c(Cl)c1
inactive: [11] 93 % of control | dose: 200.0 mg/kg/injection, schedule: Q04DX002 (ip), vehicle: Klucel (hydroxypropylcellulose) (HPC) 89 % of control | dose: 400.0 mg/kg/injection, schedule: Q04DX002 (ip), vehicle: Klucel (hydroxypropylcellulose) (HPC) 104 % of control

c1ccc([Si](c2ccccc2)(c2ccccc2)c2ccc3ccccc3c2)cc1
inactive: dose: 25.6 mg/kg/injection, schedule: Q04DX002 (ip), vehicle: saline with Tween-80 87 % of control | dose: 64.0 mg/kg/injection, schedule: Q04DX002 (ip), vehicle: saline with Tween-80 90 % of control | dose: 100.0 mg/kg/injection, schedule: Q04DX003 (ip), vehicle: saline with Tween-80 90 % of control | dose: 160.0 mg/kg/injection, schedule: Q04DX002 (ip), vehicle: saline with Tween-80 90 % of control | dose: 200.0 mg/kg/injection, schedule: Q04DX003 (ip), vehicle: saline with Tween-80 88 % of control | dose: 400.0 mg/kg/injection, schedule: Q04DX002 (ip), vehicle: saline with Tween-80 90 % of control | dose: 400.0 mg/kg/injection, schedule: Q04DX003 (ip), vehicle: saline with Tween-80 87 % of control

OCCN(CC1C(c2ccccc2)C1c1ccccc1)C1CCCCC1 (stereo not drawn)
inactive: dose: 6.25 mg/kg/injection, schedule: Q04DX002 (ip), vehicle: Klucel (hydroxypropylcellulose) (HPC) 98 % of control | dose: 25.0 mg/kg/injection, schedule: Q04DX002 (ip), vehicle: Klucel (hydroxypropylcellulose) (HPC) 90 % of control | dose: 50.0 mg/kg/injection, schedule: Q04DX002 (ip), vehicle: Klucel (hydroxypropylcellulose) (HPC) 97 % of control | [11] 97 % of control

CCC(CCl)NC(=O)Nc1cccc2c1CCCC2 (stereo not drawn)
inactive: [8] 98 % of control | [9] 96 % of control | [10] 98 % of control

CCOP(=O)(Nc1ccc2c(c1)Cc1c-2cc(Cl)c(NC(C)=O)c1Cl)OCC
inactive: [12] 97 % of control | [2] 92 % of control | [3] 94 % of control | [4] 92 % of control

O=C(NCCCCCCNC(=O)Nc1ccccc1F)Nc1ccccc1F
inactive: [13] 100 % of control | [14] 89 % of control | [15] 92 % of control

C=CCCCCCCCCC(=O)N(C)OC
inactive: dose: 25.0 mg/kg/injection, schedule: Q01DX009 (ip), vehicle: saline with Tween-80 97 % of control | dose: 50.0 mg/kg/injection, schedule: Q01DX009 (ip), vehicle: saline with Tween-80 105 % of control | [1] 94 % of control and 92 % of control

O=C1CSC(=S)N1c1ccc2c(c1)OCO2
inactive: [5] 94 % of control | [6] 90 % of control | [7] 95 % of control

O=C1c2ccccc2-c2oc(=O)c3ccccc3c21
inactive: [12] 96 % of control | [2] 96 % of control | [3] 94 % of control | [4] 96 % of control

Cc1ccc([N+](=O)[O-])cc1NC(=O)Nc1ccc(S(N)(=O)=O)cc1
inactive: [13] 97 % of control | [8] 96 % of control | [14] 98 % of control | [9] 92 % of control | [15] 103 % of control | [10] 91 % of control

COCCN1CCC(CO)C1 (stereo not drawn)
inactive: [16] 93 % of control | [17] 98 % of control | [18] 93 % of control

Cc1ccnc(NS(=O)(=O)c2ccc(N=Nc3ccc(N)nc3N)cc2)n1
inactive: [16] 100 % of control | [17] 102 % of control | [18] 100 % of control

O=C1CC2(C(=O)O)CC3CC2C(O1)C3I (stereo not drawn)
inactive: dose: 100.0 mg/kg/injection, schedule: Q01DX009 (ip), vehicle: carboxymethylcellulose (CMC) 86 % of control | dose: 100.0 mg/kg/injection, schedule: Q04DX003 (ip), vehicle: carboxymethylcellulose (CMC) 105 % of control | dose: 200.0 mg/kg/injection, schedule: Q01DX009 (ip), vehicle: carboxymethylcellulose (CMC) 96 % of control | dose: 200.0 mg/kg/injection, schedule: Q04DX003 (ip), vehicle: carboxymethylcellulose (CMC) 97 % of control | dose: 400.0 mg/kg/injection, schedule: Q01DX009 (ip), vehicle: carboxymethylcellulose (CMC) 94 % of control | dose: 400.0 mg/kg/injection, schedule: Q04DX003 (ip), vehicle: carboxymethylcellulose (CMC) 103 % of control

CN(C)Cc1c(CC(O)(c2ccccc2)c2ccccc2)ccc2ccccc12
inactive: [12] 96 % of control | [2] 100 % of control | [3] 96 % of control | [4] 105 % of control

CCOC(=O)C1CC(=O)NC(N)=N1 (stereo not drawn)
inactive: dose: 100.0 mg/kg/injection, schedule: Q01DX Z (ip), vehicle: saline 95 % of control | dose: 200.0 mg/kg/injection, schedule: Q01DX Z (ip), vehicle: saline 100 % of control

Source: PubChem BioAssay AID248 (DTP/NCI, 2004)
